Reference: PubChem BioAssay (NCI)
Several values for one entry are separate records, joined by “and”; a condition that tells them apart may be missing. Equal entries are not always repeated.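 Cells were grown in 96-well plates and exposed to each compound for 48 hours at five concentrations; endpoints were interpolated linearly between bracketing concentrations, or set to the highest concentration if not reached. Abbreviation: GI50, concentration required for 50% inhibition of growth. TGI denotes the concentration required for complete inhibition of growth.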

Assays:
Assay in all cases: NCI tumour cell line growth inhibition, 48 h
SN12C renal = system: SN12C renal
UACC-257 melanoma = system: UACC-257 melanoma
UO-31 renal = system: UO-31 renal
KM12 colon = system: KM12 colon
LOX IMVI melanoma = system: LOX IMVI melanoma
MALME-3M melanoma = system: MALME-3M melanoma
SW-620 colon = system: SW-620 colon
HCC-2998 colon = system: HCC-2998 colon
M14 melanoma = system: M14 melanoma
EKVX NSCLC = system: EKVX NSCLC

Structure (SMILES)	GI50 (SN12C renal) [µM]	TGI (SN12C renal)	GI50 (UACC-257 melanoma)	TGI (UACC-257 melanoma)	GI50 (UO-31 renal) [µM]	TGI (UO-31 renal) [µM]	GI50 (KM12 colon)	TGI (KM12 colon)	GI50 (LOX IMVI melanoma)	TGI (LOX IMVI melanoma)	GI50 (MALME-3M melanoma) [µM]	TGI (MALME-3M melanoma) [µM]	GI50 (SW-620 colon)	TGI (SW-620 colon)	GI50 (HCC-2998 colon)	TGI (HCC-2998 colon)	GI50 (M14 melanoma)	TGI (M14 melanoma)	GI50 (EKVX NSCLC)	TGI (EKVX NSCLC)
O=C(NC1CCN(Cc2ccccc2)CC1)c1cc(-c2cccnc2)nc2ccc(Cl)cc12	5.2	29.2 µM	> 100 µM	> 100 µM	4.24	21.4	13.7 µM	> 100 µM	3.27 µM	17.2 µM	7.92	> 100	11.5 µM	> 100 µM	5.51 µM	> 100 µM				
Cc1nc2ccccn2c1NC(=O)NN1C(=O)CSC1c1ccc(Cl)cc1 (stereo unspecified)	> 100	> 100 µM	> 100 µM	> 100 µM	> 100	> 100	> 100 µM	> 100 µM	> 100 µM	> 100 µM			> 100 µM	> 100 µM	> 100 µM	> 100 µM	> 100 µM	> 100 µM	> 100 µM	> 100 µM
Cc1cc2c(cc1Cl)SC(N(c1ccccc1Cl)S(=O)(=O)c1ccc(Br)s1)=NS2(=O)=O	19.5	48.7 µM			19.9	62	25.8 µM	83.4 µM	12.1 µM	25.5 µM	13.8	39.4	14.9 µM	30.4 µM	19.7 µM	53.4 µM	18.5 µM	47.3 µM	21.9 µM	75.5 µM
Clc1ccc(-c2cc(-c3ccccc3)nc(N3CCN(CCCNc4ccnc5cc(Cl)ccc45)CC3)n2)cc1	1.42	2.84 µM	1.93 µM	3.89 µM	1.55	2.9	1.68 µM	3.2 µM	1.75 µM	3.19 µM	1.81	3.35	1.42 µM	3.06 µM	1.56 µM	3.02 µM	1.87 µM	3.53 µM		
CCCCCCCCSC(=O)NCCCC		> 100 µM				51.6		> 100 µM		40.2 µM		68.5		> 100 µM				79 µM		75.4 µM
O/N=C1/CCCC/C1=C/C=C/c1ccccc1		33.4 µM		64 µM		49.4		47.1 µM		31.3 µM		41		77.1 µM		45.2 µM		40.9 µM		
CCOC(=O)/C(=C/CC/C(C)=C/CC/C(C)=C/CCc1ccoc1)CC(=O)N1CCCCC1	3.79	14.8 µM	2.29 µM	7.41 µM	2.8	12.8	4.59 µM	19.2 µM	4.43 µM	15.8 µM	2.62	7.09	4.8 µM	19.2 µM	3.93 µM	14.3 µM	2.95 µM	10.2 µM		
Cc1cccc2c(C3=C(c4cn(C)c5ccccc45)C(=O)NC3=O)cn(C)c12	> 25	> 25 µM	24.8 µM	> 25 µM	> 21.5	> 25	> 20.8 µM	> 25 µM	> 22 µM	> 25 µM	> 17.8	> 25	12.7 µM	> 25 µM	> 25 µM	> 25 µM	> 25 µM	> 25 µM		
C[C@@H](O)[C@@H](C)Oc1nc(Nc2ccc(S(=N)(=O)C3CC3)cc2)ncc1C(F)(F)F (stereo partly specified)	0.0342	> 100 µM	0.0306 µM	0.133 µM	0.0239	0.0895	0.0242 µM	1.16 µM	0.0178 µM	10.7 µM	0.0455	0.167	0.0281 µM	4.35 µM	0.0465 µM	2.72 µM	0.0349 µM	0.316 µM		
CC(=O)Nc1ccccc1-c1nc2ccccc2nc1-c1ccccc1		> 100 µM		> 100 µM		> 100		> 100 µM						> 100 µM		> 100 µM		> 100 µM		> 100 µM
NC(Cc1ccccc1)C(=O)OCN1C(=O)C2C3C=CC(C2C1=O)C1C2C(=O)N(COC(=O)C(N)Cc4ccccc4)C(=O)C2C31 (stereo unspecified)		52.7 µM and 43.9 µM		67.1 µM and 50.1 µM	40.6			40.7 µM and 40.1 µM		41.4 µM and 36.8 µM				51.3 µM and 52.8 µM	55.4 µM	> 100 µM		35 µM and 33.9 µM		> 100 µM
O=C(O)C1C2C=CC(O2)C1C(=O)NCc1cccnc1 (stereo unspecified)		> 100 µM		> 100 µM		> 100		> 100 µM		> 100 µM		> 100		> 100 µM				> 100 µM		> 100 µM
O=C1/C(=C/c2cccnc2)SC(=S)N1Cc1ccco1		45 µM		> 31.5 µM		8.02		14.5 µM		> 100 µM		> 43.5		> 100 µM				> 100 µM		> 100 µM
COc1ccc2[nH]c(Cl)c(/C=C3/C(=O)Nc4ccccc43)c2c1	0.339	14.7 µM	0.984 µM	11.2 µM	0.878	9.96	0.563 µM	3.09 µM	0.345 µM	11.3 µM	0.643	2.26	0.366 µM	7.58 µM			0.254 µM	1.23 µM	2.07 µM	3.96 µM
Nc1n[n+]([O-])c2cc([N+](=O)[O-])ccc2[n+]1[O-]		18.1 µM		27.1 µM		23.7				> 100 µM				> 100 µM				20.4 µM		
OCC#CCOCC#Cc1ccccc1C#CCOCC#CCO	26.7	80.9 µM	35.5 µM	> 100 µM	> 100	> 100	35.1 µM	> 100 µM					58.9 µM	> 100 µM	29 µM	75.3 µM	20.2 µM	49.9 µM	41.3 µM	> 100 µM
OCC1NC(COC2OC(CO)C(O)C(O)C2O)C(O)C(O)C1O (stereo unspecified)		> 100 µM		> 100 µM		> 100		> 100 µM				> 100		> 100 µM		> 100 µM		> 100 µM		
CN1CCN(CCCOc2cccc3nc(Nc4cc(Cl)cc(Cl)c4)ccc23)CC1	3.74	13.9 µM	1.97 µM	3.54 µM	1.49	2.95	1.72 µM	3.29 µM			1.92	3.7	1.97 µM	3.68 µM	1.64 µM	3.17 µM	1.73 µM	3.28 µM	1.73 µM	3.27 µM
Cc1ccc2c(c1)[n+](=O)c(C(=O)c1cccs1)c(C(F)(F)F)n2[O-]	0.796	1.97 µM	2.28 µM and 0.237 µM		1.35	50	0.849 µM and 1.4 µM	3.79 µM and 16.3 µM	0.612 µM and 0.561 µM	1.76 µM and 1.82 µM			2.02 µM and 3.58 µM	50 µM and 20.4 µM	0.638 µM and 0.238 µM	2.1 µM and 0.559 µM	2.99 µM and 4.32 µM	50 µM and 26.2 µM	0.729 µM and 0.278 µM	1.87 µM and 0.746 µM
Cc1c2cnccc2c(C)c2c1c1cc(O)ccc1n2C(C)C	0.647	6.06 µM			0.785	5.21	0.57 µM	9.87 µM	0.47 µM	1.9 µM	0.756	2.58	0.408 µM	3.27 µM	1.55 µM	4.94 µM	0.678 µM	2.34 µM	0.846 µM	2.41 µM
Nc1nc(N)c2c(n1)NC(c1sc(Cl)nc1Cl)CC(c1ccccc1)=N2 (stereo unspecified)	5.83	18.5 µM	6.77 µM	20.9 µM	3.04	15.6	3.79 µM	15.3 µM	5.39 µM	18.1 µM	6.33	19.1	3.42 µM	13.3 µM	10.3 µM	21.9 µM	2.64 µM	10.4 µM		
COc1ccccc1-n1cnc(N)c1C(=O)c1cc(OC)c(OC)c(OC)c1	5.65	> 100 µM			4.21	> 100	3.22 µM	> 100 µM	6.39 µM	> 100 µM	4.33	> 100	3.25 µM	> 100 µM	6.8 µM	> 100 µM	3.5 µM	> 100 µM	7.55 µM	> 100 µM
CCn1cnc(C[C@H](NC(=O)[C@H](CCCCNC(=O)Nc2cc(C(F)(F)F)cc(C(F)(F)F)c2)NC(=O)Nc2cc(C(F)(F)F)cc(C(F)(F)F)c2)C(=O)OC)c1	5.69	> 10 µM	> 10 µM	> 10 µM	> 10	> 10	4.41 µM	> 10 µM	3.56 µM	> 10 µM	> 10	> 10	6.86 µM	> 10 µM	3.98 µM	> 10 µM	6.29 µM	> 10 µM		
CC(=O)OC1C[C@H]2C(OC(=O)c3ccccc3)C3C4(OC(C)=O)COC4C[C@H](OC(C)=O)[C@@]3(C)C(OC(C)=O)[C@H](OC(C)=O)C(=C1C)C2(C)C (stereo partly specified)		> 100 µM		> 100 µM		79.8		> 100 µM		> 100 µM		> 100		> 100 µM				> 100 µM		> 100 µM
